Test results published in ChEMBL document CHEMBL1201862, “PubChem BioAssay data set” (2004).
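Protocol summary: plate cells (96-well), add compound at 5 concentrations, incubate 48 h, interpolate endpoints linearly. Here, GI50 denotes the concentration required for 50% inhibition of growth.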 Calls of active or inactive are those of the source. Rule as the data show it: active = GI50 up to about 1.1 µM and inactive = higher.

Columns and labels:
Assay in all cases: NCI anticancer screen, dose series, 48 h
UACC-62 = system: UACC-62
HOP-62 = system: HOP-62
NCI-H23 = system: NCI-H23
MDA-N = system: MDA-N
SK-MEL-2 = system: SK-MEL-2
HL-60 = system: HL-60
K562 = system: K562
SNB-19 = system: SNB-19
MCF7 = system: MCF7
A498 = system: A498
TK-10 = system: TK-10
MOLT-4 = system: MOLT-4
BT-549 = system: BT-549
SR = system: SR
NCI-H226 = system: NCI-H226
COLO 205 = system: COLO 205
ACHN = system: ACHN
EKVX = system: EKVX
NCI/ADR-RES = system: NCI/ADR-RES
UO-31 = system: UO-31

| SMILES | GI50 (UACC-62) | GI50 (HOP-62) | GI50 (NCI-H23) | GI50 (MDA-N) | GI50 (SK-MEL-2) | GI50 (HL-60) | GI50 (K562) | GI50 (SNB-19) | GI50 (MCF7) | GI50 (A498) | GI50 (TK-10) | GI50 (MOLT-4) | GI50 (BT-549) | GI50 (SR) | GI50 (NCI-H226) | GI50 (COLO 205) | GI50 (ACHN) | GI50 (EKVX) | GI50 (NCI/ADR-RES) | GI50 (UO-31) |
| --- | --- | --- | --- | --- | --- | --- | --- | --- | --- | --- | --- | --- | --- | --- | --- | --- | --- | --- | --- | --- |
| CC1(C)Oc2ccc(NC(=O)CCC(N)C(=O)O)cc2O1 (stereo not given) | > 100 µM (inactive) | > 100 µM (inactive) | > 100 µM (inactive) | > 100 µM (inactive) | > 100 µM (inactive) | > 100 µM (inactive) | > 100 µM (inactive) | > 100 µM (inactive) | > 100 µM (inactive) | > 100 µM (inactive) | > 100 µM (inactive) | > 100 µM (inactive) | > 100 µM (inactive) | > 100 µM (inactive) | > 100 µM (inactive) | > 100 µM (inactive) | > 100 µM (inactive) | > 100 µM (inactive) | > 100 µM (inactive) | > 100 µM (inactive) |
| CCC(=O)c1cc(C(=O)C(=S)SC)cc(C(=O)C(=S)SC)c1 | > 100 µM (inactive) | > 100 µM (inactive) | > 76.7 µM (inactive) | > 100 µM (inactive) | > 100 µM (inactive) | 4.83 µM (inactive) | 41.9 µM (inactive) | > 100 µM (inactive) | > 72.1 µM (inactive) | > 100 µM (inactive) | > 100 µM (inactive) | 12 µM (inactive) | > 100 µM (inactive) | 11 µM (inactive) | > 100 µM (inactive) | > 100 µM (inactive) | > 87.1 µM (inactive) | > 100 µM (inactive) | > 100 µM (inactive) | 48.4 µM (inactive) |
| COC(=O)C(Cc1ccccc1)C(=O)NC(CNC(=O)OCc1ccccc1)C(=O)OCc1ccccc1 (stereo not given) | 23.6 µM (inactive) | > 100 µM (inactive) | 43.6 µM (inactive) | 21.4 µM (inactive) | 24.1 µM (inactive) | 30.9 µM (inactive) | 15.6 µM (inactive) | 86.3 µM (inactive) | > 100 µM (inactive) | > 47.8 µM (inactive) | 33.7 µM (inactive) | 11.8 µM (inactive) | 53.3 µM (inactive) | 24 µM (inactive) | 32.1 µM (inactive) | 19.8 µM (inactive) | 34.6 µM (inactive) | 76.7 µM (inactive) | 27 µM (inactive) | 28.6 µM (inactive) |
| CC[C@]12C=CCN3CCC4(c5cc(/N=N/c6ccc([N+](=O)[O-])cc6)c(OC)cc5N(C)[C@H]4[C@@](O)(C(=O)OC)[C@@H]1OC(C)=O)[C@@H]32 (stereo not given in full) | 17.2 µM (inactive) | 13.6 µM (inactive) | 10.5 µM (inactive) | 12.9 µM (inactive) | 13 µM (inactive) | 7.31 µM (inactive) | 6.32 µM (inactive) | 26.6 µM (inactive) | 11.6 µM (inactive) | 14.1 µM (inactive) | 17.2 µM (inactive) | 3.01 µM (inactive) | 72.4 µM (inactive) | 9.71 µM (inactive) | 5.5 µM (inactive) | 4.63 µM (inactive) | 15 µM (inactive) | 9.86 µM (inactive) | 7.18 µM (inactive) | 11.2 µM (inactive) |
| Cc1cc(N(CCC#N)CCC#N)ccc1C(=N/NC(=O)c1cc(Cl)ccc1O)/N=N/c1cccc([N+](=O)[O-])c1 | 14.1 µM (inactive) | 24.2 µM (inactive) | 22.6 µM (inactive) | 37 µM (inactive) | 21.7 µM (inactive) | 14.7 µM (inactive) | 22 µM (inactive) | 26.5 µM (inactive) | 16.7 µM (inactive) | 15.5 µM (inactive) | 27.2 µM (inactive) | 6.03 µM (inactive) | 22.4 µM (inactive) | 12.6 µM (inactive) | 25.1 µM (inactive) | 16.7 µM (inactive) | 35.5 µM (inactive) | 25.1 µM (inactive) | 23 µM (inactive) | 17.6 µM (inactive) |
| O=[N+]([O-])c1ccc2c(c1)C1=NN(c3ccccc3)C(c3ccccc3Br)C1CCC2 (stereo not given) | 9.62 µM (inactive) | 43.6 µM (inactive) | 18.7 µM (inactive) | 17.3 µM (inactive) | 24.7 µM (inactive) | 7.64 µM (inactive) | 4.53 µM (inactive) | 25.7 µM (inactive) | 11.2 µM (inactive) | 12.1 µM (inactive) | 38.2 µM (inactive) | 6.97 µM (inactive) | 13.2 µM (inactive) | 4.05 µM (inactive) | 25.5 µM (inactive) | 33.7 µM (inactive) | 22.8 µM (inactive) | 20.5 µM (inactive) | 12.7 µM (inactive) | 20.6 µM (inactive) |
| C=C1C(=O)OC2CC(C)C3CC(O)OC(OCC)C3(C)CC12 (stereo not given) | > 37.6 µM (inactive) | 20.9 µM (inactive) | 17.1 µM (inactive) | 17.5 µM (inactive) | 15.3 µM (inactive) | 1.14 µM (inactive) | 11.8 µM (inactive) | 26 µM (inactive) | 13.3 µM (inactive) | 28.1 µM (inactive) | 22 µM (inactive) | 16.7 µM (inactive) | > 41.8 µM (inactive) | 13.6 µM (inactive) | 25.3 µM (inactive) | 15.8 µM (inactive) | 15.4 µM (inactive) | 23.7 µM (inactive) | 16.7 µM (inactive) | 22.3 µM (inactive) |
| COc1ccccc1NC(=S)N/N=C(/c1ccccc1)c1ccccn1 | 0.273 µM (active) | 0.251 µM (active) | < 0.013 µM (active) | 0.229 µM (active) | 4.4 µM (inactive) | < 0.0131 µM (active) | < 0.0128 µM (active) | 2.6 µM (inactive) | 0.0228 µM (active) | 1.38 µM (inactive) | 0.125 µM (active) | < 0.0182 µM (active) | 2.15 µM (inactive) | < 0.0206 µM (active) | 0.146 µM (active) | 0.0173 µM (active) | 0.0257 µM (active) | 0.0968 µM (active) | 0.0853 µM (active) | 0.2 µM (active) |
| CN(C)c1ccc(/C=C(\NC(=O)c2ccccc2)C2=NC(CCC(=O)O)C(=O)O2)cc1 (stereo not given) | > 50 µM (inactive) | 15.9 µM (inactive) | > 50 µM (inactive) | > 50 µM (inactive) | > 50 µM (inactive) | 49.9 µM (inactive) | > 50 µM (inactive) | 33.2 µM (inactive) | > 50 µM (inactive) | > 50 µM (inactive) | > 50 µM (inactive) | > 50 µM (inactive) | > 50 µM (inactive) | 49.2 µM (inactive) | > 50 µM (inactive) | > 50 µM (inactive) | > 50 µM (inactive) | > 50 µM (inactive) | 49 µM (inactive) | > 50 µM (inactive) |
| Cc1cc(C)nc(NS(=O)(=O)c2ccc(NC(=O)c3ccc4nc5ccccc5c(Nc5ccc(S(=O)(=O)Nc6nc(C)cc(C)n6)cc5)c4c3)cc2)n1 | 66.4 µM (inactive) | > 100 µM (inactive) | 34 µM (inactive) | 91 µM (inactive) | 36.2 µM (inactive) | 33 µM (inactive) | 38 µM (inactive) | > 100 µM (inactive) | 37.8 µM (inactive) | > 100 µM (inactive) | > 100 µM (inactive) | 28.5 µM (inactive) | 19 µM (inactive) | 39.7 µM (inactive) | > 100 µM (inactive) | > 100 µM (inactive) | > 100 µM (inactive) | > 100 µM (inactive) | > 100 µM (inactive) | > 100 µM (inactive) |
| COc1ccc(/C=C\c2cc(OC)c(OC)c(OC)c2)cc1OC(=O)CCC(=O)O | < 0.0001 µM (active) | < 0.0001 µM (active) | 0.0119 µM (active) | < 0.0001 µM (active) | 0.0126 µM (active) | < 0.0001 µM (active) | < 0.0001 µM (active) | < 0.0001 µM (active) | < 0.01 µM (active) | 0.067 µM (active) | 46.6 µM (inactive) | < 0.0001 µM (active) | 25.8 µM (inactive) | < 0.0001 µM (active) | < 0.0001 µM (active) | 0.857 µM (active) | < 0.0001 µM (active) | 0.0149 µM (active) | < 0.0001 µM (active) | 1.34 µM (inactive) |
| CC(=O)OCC1=C(C)C[C@H]([C@@H](COC(C)=O)C2CCC3C4C[C@H]5O[C@]56CC=CC(=O)[C@]6(C)C4CC[C@@]32C)OC1=O (stereo not given in full) | 0.258 µM (active) | 0.634 µM (active) | 0.37 µM (active) | 0.175 µM (active) | 0.716 µM (active) | 0.0384 µM (active) | 0.0106 µM (active) | 0.681 µM (active) | 0.00955 µM (active) | 0.624 µM (active) | 0.993 µM (active) | 0.0204 µM (active) | 0.26 µM (active) | 0.005 µM (active) | 0.598 µM (active) | 0.307 µM (active) | 0.302 µM (active) | 0.465 µM (active) | 0.185 µM (active) | 0.993 µM (active) |
| C[N+](C)(N)CCC[N+](C)(C)N | > 100 µM (inactive) | > 100 µM (inactive) | > 100 µM (inactive) | > 100 µM (inactive) | > 100 µM (inactive) | > 100 µM (inactive) | > 100 µM (inactive) | > 100 µM (inactive) | > 100 µM (inactive) | > 100 µM (inactive) | > 100 µM (inactive) | > 100 µM (inactive) | > 100 µM (inactive) | > 100 µM (inactive) | > 100 µM (inactive) | > 100 µM (inactive) | > 100 µM (inactive) | > 100 µM (inactive) | > 100 µM (inactive) | > 100 µM (inactive) |
| Cc1cc(/N=N/c2ccccc2C)ccc1N | 12.5 µM (inactive) | 5.6 µM (inactive) | 3.99 µM (inactive) | 18.5 µM (inactive) | 15.6 µM (inactive) | 2.96 µM (inactive) | 11.4 µM (inactive) | 31 µM (inactive) | 4.06 µM (inactive) | 24.3 µM (inactive) | 19.6 µM (inactive) | 2.65 µM (inactive) | 10.6 µM (inactive) | 12.7 µM (inactive) | 13.9 µM (inactive) | 18.4 µM (inactive) | 5.52 µM (inactive) | 15.5 µM (inactive) | 11.1 µM (inactive) | 3.02 µM (inactive) |
